From ChEMBL document CHEMBL5584282, “The New Frontier in Neurotherapeutics: From Brain Stimulation to Novel Psychotropics” (ACS Med Chem Lett, 2024) come the findings set out here.

The source made the active and inactive calls. The rule behind the calls is not given here.

What all share (type): functional, cell-based
In experiment [1] the test system is Cortical neurone. Put plainly: Neuroplasticity effect in Wistar rat brain cortical neuron assessed as neurite outgrowth by measuring increase in neurite number at <=10 uM incubated for 72 hrs by DAPI staining based imaging analysis.
Experiment [2] concerns Cortical neurone. Put plainly: Neuroplasticity effect in Wistar rat brain cortical neuron assessed as neurite outgrowth by measuring increase in neurite length at <=10 uM incubated for 72 hrs by DAPI staining based imaging analysis.
The subject of experiment [3] is Cortical neurone. Put plainly: Neuroplasticity effect in Wistar rat brain cortical neuron assessed as neurite outgrowth by measuring increase in neurite branching at <=10 uM incubated for 72 hrs by DAPI staining based imaging analysis.

As for `COc1ccc2c3c(oc2c1)CCCN(C)C3`, the result with Cortical neurone [1], in the experiment with Cortical neurone [2] and in the experiment on Cortical neurone [3] was Active.

`COc1cccc2oc3c(c12)CCNCC3`: the result in the experiment on Cortical neurone [1], in the experiment with Cortical neurone [2] and in the experiment with Cortical neurone [3] was inactive.

Regarding `Fc1cccc2oc3c(c12)CCN(C1CCC1)CC3`, the result with Cortical neurone [1] and with Cortical neurone [2] was Active. For the same compound, the result in the experiment on Cortical neurone [3] was inactive.

In the case of `FC(F)(F)Oc1cccc2sc3c(c12)CCN(C1CCC1)CC3`, the result in the experiment on Cortical neurone [1], in the experiment with Cortical neurone [2] and in the experiment with Cortical neurone [3] was Active.

Consider `Fc1cccc2oc3c(c12)CN(C1CCC1)CCC3`, for which the outcome with Cortical neurone [1], with Cortical neurone [2] and with Cortical neurone [3] was Active.

With `FC(F)(F)CN1CCc2sc3ccccc3c2CC1`, the outcome in the experiment on Cortical neurone [1] was inactive. For the same compound, the outcome in the experiment with Cortical neurone [2] and with Cortical neurone [3] was Active.

Turning to `CN1CCCc2oc3cccc(F)c3c2C1`, the outcome in the experiment with Cortical neurone [1], in the experiment on Cortical neurone [2] and in the experiment on Cortical neurone [3] was Active.

For the compound `COc1ccc2c3c(sc2c1)CCNCC3`, the outcome with Cortical neurone [1], in the experiment on Cortical neurone [2] and in the experiment on Cortical neurone [3] was Active.

For the compound `COc1cccc2oc3c(c12)CCN(C1CCC1)CC3`, the result in the experiment with Cortical neurone [1], in the experiment with Cortical neurone [2] and with Cortical neurone [3] was Active.

As to `Fc1ccc2c3c(oc2c1)CCCNC3`, the result in the experiment on Cortical neurone [1], in the experiment with Cortical neurone [2] and with Cortical neurone [3] was Active.

`CN1CCc2oc3cccc(F)c3c2CC1`: the result with Cortical neurone [1] was inactive. For the same compound, the outcome in the experiment on Cortical neurone [2] and in the experiment on Cortical neurone [3] was Active.

Consider `COc1ccc2c3c(oc2c1)CCCN(CC(F)(F)F)C3`, for which the result with Cortical neurone [1], in the experiment with Cortical neurone [2] and in the experiment with Cortical neurone [3] was Active.

As to `COc1ccc2c3c(oc2c1)CCCN(C1CCC1)C3`, the result with Cortical neurone [1], with Cortical neurone [2] and with Cortical neurone [3] was Active.

As for `COc1cccc2oc3c(c12)CN(C1CCC1)CCC3`, the result in the experiment with Cortical neurone [1], in the experiment with Cortical neurone [2] and with Cortical neurone [3] was inactive.

For `Fc1cccc2oc3c(c12)CN(CC(F)(F)F)CCC3`, the outcome in the experiment on Cortical neurone [1], in the experiment with Cortical neurone [2] and with Cortical neurone [3] was Active.
